This note sets out measurements from US20240417372A1, “ESTERS OF A RETINOID AND BAKUCHIOL AND PREPARATIONS THEREOF” (Conagen Inc., priority 2021, published 2024).

Holding throughout (assay type): cell-based
Holding throughout (details): for Fold Activation: RLU vs DMSO, 23 hours

For one test, the target named is T1, RAR alpha (Homo sapiens, UniProt P10276).
T1 sequence (P10276 183-417 limits assumed): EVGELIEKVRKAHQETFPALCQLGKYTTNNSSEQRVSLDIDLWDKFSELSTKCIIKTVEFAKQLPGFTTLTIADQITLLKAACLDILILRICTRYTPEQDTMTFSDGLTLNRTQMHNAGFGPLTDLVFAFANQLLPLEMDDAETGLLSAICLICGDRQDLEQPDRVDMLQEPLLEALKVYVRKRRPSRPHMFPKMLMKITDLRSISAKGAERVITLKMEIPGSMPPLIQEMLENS
Description: RAR alpha Gal4-hybrid luciferase reporter cell agonist assay. How it is done: (§1) Reporter Cells (Indigo Biosciences, catalog #IB02201, IB02101, IB00821) used in the assays express a receptor hybrid in which the native N-terminal DNA binding domain (DBD) has been replaced with that of the yeast Gal4 DBD. The reporter gene, firefly luciferase, is functionally linked to the Gal4 upstream activation sequence (UAS). Receptor assays were performed as described in Steps 1 to 3 below.
(§2) Step 1: A suspension of Reporter Cells was prepared in Cell Recovery Medium (CRM: containing charcoal-stripped FBS) and 100 μl of the Reporter Cell suspension was dispensed into wells of a white 96-well assay plate.
(§3) Step 2: Test and reference compound master stocks were prepared as solutions at 1,000× concentration’ in DMSO relative to the final treatment concentration. This intermediate stock was subsequently diluted directly into INDIGO Biosciences's Compound Screening Medium (CSM; containing charcoal-stripped FBS) to generate ‘2×-concentration’ treatment media. 100 μL of each prepared treatment medium was dispensed into duplicate assay wells pre-dispensed with a 100 μL suspension of Reporter Cells, thereby achieving the desired final treatment concentrations. The concentration of residual DMSO in all assay wells was 0.1% for the test and reference compounds. Assay plates were incubated at 37° C., 5% CO2 and ˜70% humidity for 23 hours. DMSO control was used to determine background activity. Retinoic acid was used with its EC100 concentration to show 100% activity of each receptor. Retinol was used as positive control.
(§4) Step 3: Following the incubation period, treatment media were discarded and 100 μL/well of Luciferase Detection Reagent was added per well to determine receptor activity in terms of relative luminescence units (RLUs). Data processing: fold activation: [Ave RLU Test Cmpd/Ave RLU DMSO].
(Reporter assays use an easily measured gene product as a stand-in for the process of interest.)

For a further test, the target named is T2, RAR beta (Homo sapiens, UniProt P10826).
T2 sequence (P10826 183-417 limits assumed): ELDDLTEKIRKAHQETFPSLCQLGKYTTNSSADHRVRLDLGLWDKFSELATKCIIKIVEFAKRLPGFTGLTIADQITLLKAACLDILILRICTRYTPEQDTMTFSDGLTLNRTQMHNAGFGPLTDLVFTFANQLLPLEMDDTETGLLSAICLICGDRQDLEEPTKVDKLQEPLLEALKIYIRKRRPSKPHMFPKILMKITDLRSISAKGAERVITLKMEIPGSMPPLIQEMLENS
Briefly: RAR beta Gal4-hybrid luciferase reporter cell agonist assay. How it is done:
as §1, §2, §3, §4

A further test relates to RAR gamma. Description: RAR gamma Gal4-hybrid luciferase reporter cell agonist assay. How it is done:
as §1, §2, §3, §4

For `C=C[C@](C)(/C=C/c1ccc(OC(=O)/C=C(C)/C=C/C=C(C)/C=C/C2=C(C)CCCC2(C)C)cc1)CCC=C(C)C` [Bakuchoyl retinoate of Formula I], the “Fold Activation” value at RAR alpha (RAR alpha, 0.1 μM) was 26.0; on RAR alpha (RAR alpha, 1 μM) it was 979; on RAR beta (RAR beta, 0.1 μM), 12.6; on RAR beta (RAR beta, 1 μM), 169; in the test on RAR gamma (RAR gamma, 0.1 μM) it was 41.0; in the test with RAR gamma (RAR gamma, 1 μM) it was 541. In addition, the “activity compared with retinol (in words)” value at RAR alpha (RAR alpha, at 0.1 μm and 0.01 μm) is recorded as “more active than retinol”; at RAR beta (RAR beta, at 0.1 μm and 0.01 μm), “more active than retinol”; in the test with RAR gamma (RAR gamma, at 0.1 μm and 0.01 μm) it was “more active than retinol”. Further, on RAR alpha (summary of Table 1), the “agonist activity towards RAR alpha (in words)” value is “exhibited agonist activity”. Also, the “agonist activity towards RAR beta (in words)” value on RAR beta (summary of Table 1) is reported as “exhibited agonist activity”. Further, in the test with RAR gamma (summary of Table 1), the “agonist activity towards RAR gamma (in words)” value was “exhibited agonist activity”.
Turning to `CC1=C(/C=C/C(C)=C/C=C/C(C)=C/C(=O)O)C(C)(C)CCC1` [Retinoic acid, reference compound], in the test on RAR gamma (RAR gamma, 0.1 μM (EC100 concentration of retinoic acid)), the “Fold Activation” value stood at 706.
Take `CC1=C(/C=C/C(C)=C/C=C/C(C)=C/CO)C(C)(C)CCC1` [Retinol, reference compound]: the “Fold Activation” value came out at 6.35 at RAR alpha (RAR alpha, 0.1 μM); 518 at RAR alpha (RAR alpha, 1 μM); 4.91 on RAR beta (RAR beta, 0.1 μM); 127 on RAR beta (RAR beta, 1 μM); 18.5 with RAR gamma (RAR gamma, 0.1 μM); 368 in the test with RAR gamma (RAR gamma, 1 μM).
